The results in this text go back to patent publication US20090010891A1, “Sepsis Treatment Agent” (Toa Pharmaceutical Co., Ltd., priority 2007, published 2009).

The structures appear in SMILES notation.

This experiment has as its system sepsis patients. The experiment in a line: treatment course of sepsis in blood culture positive patients. The format is in vivo, human. The note with it: observation for 1 year; for Cured / Deaths: number of cases, Bio3 1 g 3 times a day where given. The procedure:
The sepsis treatment agent was administered 3 times a day at 1 g each time using a live bacteria formulation of a mix of the three bacteria. The patients were hospitalized in a psychiatric hospital. The patients were blood culture positive which is a predictor for bacterial translocation. In 4 cases, imipenem/cilastatin (IPM/CS) was administered, and in 4 cases, latamoxef (LMOX) was given. During the observation period, CRP (C reactive protein) increased slightly, and E. coli and enterococcus and the like were detected by culturing blood. After observation for 1 year, two cases died from both groups, and two cases were cured.

Take `CO[C@@]1(NC(=O)C(C(=O)O)c2ccc(O)cc2)C(=O)N2C(C(=O)O)=C(CSc3nnnn3C)CO[C@@H]21` (some centres unmarked) [Latamoxef, latamoxef]: the Cured is given as 2, the Deaths was found to be 2 and the “death rate (%)” value turned out to be 50%. Also, under “listed as latamoxef”, the Cured entry is “two” and the Deaths entry is listed as “two”.
`C[C@@H](O)[C@H]1C(=O)N2C(C(=O)O)=C(SCCN=CN)C[C@H]12` [Imipenem, imipenem/cilastatin]: the Cured was determined as 2, the Deaths was determined as 2 and the “death rate (%)” value is reported as 50%.
